In ChEMBL document CHEMBL6078695, “Design, synthesis, and biological evaluations of 5-aryl-pyrazole-3-carboxamide derivatives as selective CB2 receptor agonists for the treatment of colitis” (Eur J Med Chem, 2025):
The source made the active and inactive calls. The rule behind the calls is not given here.

Legend:
Assay type in all cases: functional, cell-based
[1] = target: T1, Cannabinoid receptor 1 (Homo sapiens, UniProt P21554); test: Agonist activity at human CB1 receptor expressed in CHO-K1 cells co-transfected with human Galpha16 assessed as intracellular calcium flux
T1 sequence (P21554 whole entry): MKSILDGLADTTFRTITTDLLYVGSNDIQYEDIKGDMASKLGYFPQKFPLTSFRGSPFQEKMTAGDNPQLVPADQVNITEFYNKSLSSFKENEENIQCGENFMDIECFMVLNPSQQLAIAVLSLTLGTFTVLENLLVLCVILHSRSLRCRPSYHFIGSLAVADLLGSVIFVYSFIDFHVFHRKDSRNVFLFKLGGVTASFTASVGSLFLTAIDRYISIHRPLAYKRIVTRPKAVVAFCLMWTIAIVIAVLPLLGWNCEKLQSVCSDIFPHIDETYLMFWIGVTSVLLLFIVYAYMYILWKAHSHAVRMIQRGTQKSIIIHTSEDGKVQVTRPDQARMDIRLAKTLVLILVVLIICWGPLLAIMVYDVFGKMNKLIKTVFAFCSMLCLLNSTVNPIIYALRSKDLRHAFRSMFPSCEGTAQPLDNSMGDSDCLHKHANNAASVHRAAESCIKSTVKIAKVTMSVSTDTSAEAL

[2] = target: T2, Cannabinoid receptor 2 (Homo sapiens, UniProt P34972); test: Agonist activity at human CB2 receptor expressed in CHO-K1 cells co-transfected with human Galpha16 assessed as intracellular calcium flux
T2 sequence (P34972 whole entry): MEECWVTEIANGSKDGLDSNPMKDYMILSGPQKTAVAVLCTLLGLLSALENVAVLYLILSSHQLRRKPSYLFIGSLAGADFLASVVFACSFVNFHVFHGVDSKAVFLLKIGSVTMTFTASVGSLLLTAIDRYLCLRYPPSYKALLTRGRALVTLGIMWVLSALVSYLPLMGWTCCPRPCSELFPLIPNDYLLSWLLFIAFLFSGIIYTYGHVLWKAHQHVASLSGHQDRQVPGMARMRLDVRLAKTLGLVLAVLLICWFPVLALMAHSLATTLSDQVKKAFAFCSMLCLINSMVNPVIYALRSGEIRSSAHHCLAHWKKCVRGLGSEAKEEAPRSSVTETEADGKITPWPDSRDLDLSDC

[3] = target: T2, Cannabinoid receptor 2; test: Agonist activity at human CB2 receptor expressed in CHO-K1 cells co-transfected with human Galpha16 assessed as intracellular calcium flux at 10 uM relative to control; details: filed as agonist
[4] = target: T1, Cannabinoid receptor 1; test: Antagonist activity at human CB1 receptor expressed in CHO-K1 cells co-transfected with human Galpha16 assessed as intracellular calcium flux
[5] = target: T2, Cannabinoid receptor 2; test: Antagonist activity at human CB2 receptor expressed in CHO-K1 cells co-transfected with human Galpha16 assessed as intracellular calcium flux
[6] = target: T2, Cannabinoid receptor 2; test: Partial agonist activity at human CB2 receptor expressed in CHO-K1 cells co-transfected with human Galpha16 assessed as intracellular calcium flux at 10 uM
[7] = target: T2, Cannabinoid receptor 2; test: Agonist activity at human CB2 receptor expressed in CHO-K1 cells co-transfected with human Galpha16 assessed as intracellular calcium flux at 10 uM
[8] = target: T1, Cannabinoid receptor 1; test: Agonist activity at human CB1 receptor expressed in CHO-K1 cells co-transfected with human Galpha16 assessed as intracellular calcium flux at 10 uM relative to control
[9] = target: T2, Cannabinoid receptor 2; test: Agonist activity at human CB2 receptor expressed in HEK293 cells assessed as forskolin-stimulated cAMP accumulation preincubated with compound for 10 mins followed by forskolin induction and measured after 2 hrs by HTRF analysis
[10] = target: T2, Cannabinoid receptor 2; test: Agonist activity at human CB2 receptor expressed in CHO cells assessed as reduction in ERK1/2 phosphorylation at 10 uM by Western blot analysis
[11] = target: T2, Cannabinoid receptor 2; test: Antagonist activity at human CB2 receptor expressed in CHO cells co-transfected with human Galpha16 assessed as increase in intracellular calcium mobilization at 10 uM; details: filed as antagonist
[12] = target: T2, Cannabinoid receptor 2; test: Antagonist activity at human CB2 receptor expressed in CHO cells co-transfected with human Galpha16 assessed as increase in intracellular calcium mobilization at 10 uM preincubated with compound for 10 mins followed by HBSS buffer wash and re-treated with compound at same concentration; details: filed as antagonist
[13] = target: T2, Cannabinoid receptor 2; test: Antagonist activity at human CB2 receptor expressed in CHO cells co-transfected with human Galpha16 assessed as receptor desensitization by measuring reduction in calcium response at 10 uM; details: filed as antagonist

CC(C)(CO)NC(=O)c1cc(-c2cccs2)n(-c2ccc(F)cc2)n1
EC50 [1]: > 100 µM
EC50 [2]: 0.852 µM
Emax [3]: 48%
IC50 [4]: > 100 µM
IC50 [5]: > 100 µM
Activity ([6]; filed as partial agonist): Weak_effect

CCCCCn1nc(-c2cccs2)cc1C(=O)NC(C)(C)CO
EC50 [1]: > 100 µM
EC50 [2]: > 100 µM
IC50 [4]: > 100 µM

CCCCCn1nc(C(=O)NC(C)(C)CO)cc1-c1cc(C)cs1
EC50 [1]: > 100 µM
EC50 [2]: > 100 µM
IC50 [4]: > 100 µM
IC50 [5]: 0.0685 µM

CCCCn1nc(C(=O)NC(C)(C)CO)cc1-c1cncs1
EC50 [1]: > 100 µM
EC50 [2]: > 100 µM
IC50 [4]: > 100 µM
IC50 [5]: > 100 µM
Activity [7]: inactive

CCCCCn1nc(C(=O)NC(C)(C)CO)cc1-c1cccs1
EC50 [1]: 0.593 µM
Emax ([8]; filed as agonist): 70%
EC50 [2]: 0.0088 µM
Emax [3]: 95%
IC50 [4]: > 100 µM

CCCCCn1nc(C(=O)NC(C)(C)CO)cc1-c1cc(Cl)cs1
EC50 [1]: > 100 µM
EC50 [2]: > 100 µM
IC50 [4]: > 100 µM
IC50 [5]: 0.0346 µM

CCCCn1nc(C(=O)NC(C)(C)CO)cc1-c1ccn(C)c1
EC50 [1]: > 100 µM
EC50 [2]: > 100 µM
IC50 [4]: > 100 µM
IC50 [5]: > 100 µM
Activity [7]: inactive

CCCCCCC(C)(C)c1ccc([C@@H]2C[C@H](C)CC[C@H]2CCCO)c(O)c1
Emax ([8]; filed as agonist): 100%
EC50 [2]: 0.035 µM
Emax [3]: 100%
IC50 [5]: > 100 µM
EC50 [9]: 0.0163 µM
Activity [10]: inactive
Activity [11]: Active
Activity [12]: Active
Activity [13]: Active

CCCCCn1nc(C(=O)NC(C)(C)CO)cc1-c1ccc(C)s1
EC50 [1]: > 100 µM
EC50 [2]: > 100 µM
IC50 [4]: > 100 µM
IC50 [5]: 0.0282 µM

CCCCCn1nc(C(=O)NC(C)(C)CO)cc1-c1sccc1Cl
EC50 [1]: > 100 µM
EC50 [2]: 0.0215 µM
Emax [3]: 76%
IC50 [4]: > 100 µM
IC50 [5]: > 100 µM

CCCCCn1nc(C(=O)NC(C)(C)CO)cc1-c1cccn1CC
EC50 [1]: 0.0375 µM
Emax ([8]; filed as agonist): 90%
EC50 [2]: 0.0077 µM
Emax [3]: 76%
IC50 [4]: > 100 µM
IC50 [5]: > 100 µM

CCCCCn1nc(-c2ccco2)cc1C(=O)NC(C)(C)CO
EC50 [1]: > 100 µM
EC50 [2]: > 100 µM
IC50 [4]: > 100 µM

CC(C)(CO)NC(=O)c1cc(-c2cccs2)n(-c2ccc(Cl)cc2)n1
EC50 [1]: > 100 µM
EC50 [2]: 0.788 µM
Emax [3]: 82%
IC50 [4]: > 100 µM
IC50 [5]: > 100 µM
Activity ([6]; filed as partial agonist): Weak_effect

COc1ccc(C(=O)c2c(C)n(CCN3CCOCC3)c3cc(I)ccc23)cc1
EC50 [2]: > 100 µM
IC50 [5]: 0.179 µM

CCCCn1nc(C(=O)NC(C)(C)CO)cc1-c1cccn1C(C)C
EC50 [1]: > 100 µM
EC50 [2]: > 100 µM
IC50 [4]: > 100 µM
IC50 [5]: > 100 µM
Activity [7]: inactive
Activity ([6]; filed as partial agonist): Weak_effect

CCCCCn1nc(C(=O)NC(C)(C)CO)cc1-c1ccc(Cl)s1
EC50 [1]: > 100 µM
EC50 [2]: > 100 µM
IC50 [4]: > 100 µM
IC50 [5]: 0.0322 µM

COCCn1nc(C(=O)NC(C)(C)CO)cc1-c1cccs1
EC50 [1]: > 100 µM
EC50 [2]: 0.128 µM
Emax [3]: 46%
IC50 [4]: > 100 µM
IC50 [5]: > 100 µM
Activity ([7]; filed as agonist): Active

CCCCCn1nc(C(=O)NC(C)(C)CO)cc1-c1sccc1C
EC50 [1]: 0.424 µM
Emax [8]: 30%
EC50 [2]: 0.274 µM
Emax [3]: 85%
IC50 [4]: > 100 µM
IC50 [5]: > 100 µM

CCCCCCn1nc(C(=O)NC(C)(C)CO)cc1-c1cccs1
EC50 [1]: > 100 µM
EC50 [2]: 0.0195 µM
Emax [3]: 72%
IC50 [4]: > 100 µM
IC50 [5]: > 100 µM

CCCCCn1nc(C(=O)NC(C)(C)CO)cc1-c1nccs1
EC50 [1]: > 100 µM
EC50 [2]: > 100 µM
IC50 [4]: > 100 µM
IC50 [5]: > 100 µM

CCCCCn1nc(-c2cccn2CC)cc1C(=O)NC(C)(C)CO
EC50 [1]: > 100 µM
EC50 [2]: > 100 µM
IC50 [4]: > 100 µM

CC(C)(CO)NC(=O)c1cc(-c2cccs2)n(CC2CC2)n1
EC50 [1]: > 100 µM
EC50 [2]: 0.174 µM
Emax [3]: 55%
IC50 [4]: > 100 µM
IC50 [5]: > 100 µM
Activity ([7]; filed as agonist): Active

CCCCCn1nc(C(=O)NC(C)(C)CO)cc1-c1nccn1C
EC50 [1]: > 100 µM
EC50 [2]: > 100 µM
IC50 [4]: > 100 µM
IC50 [5]: > 100 µM

CCCCCn1nc(C(=O)NC(C)(C)CO)cc1-c1cccn1C
EC50 [1]: > 100 µM
EC50 [2]: 0.0479 µM
Emax [3]: 90%
IC50 [4]: > 100 µM

Cc1ccc(-n2nc(C(=O)NC(C)(C)CO)cc2-c2cccs2)cc1
EC50 [1]: > 100 µM
EC50 [2]: 1.04 µM
Emax [3]: 45%
IC50 [4]: > 100 µM
IC50 [5]: > 100 µM
Activity ([6]; filed as partial agonist): Weak_effect

CCCCCn1nc(C(=O)NC(C)(C)CO)cc1-c1ccsc1
EC50 [1]: > 100 µM
EC50 [2]: 0.141 µM
Emax [3]: 50%
IC50 [4]: > 100 µM
IC50 [5]: > 100 µM

CCCCCn1nc(-c2cccn2C)cc1C(=O)NC(C)(C)CO
EC50 [1]: > 100 µM
EC50 [2]: > 100 µM
IC50 [4]: > 100 µM

COc1ccc(-n2nc(C(=O)NC(C)(C)CO)cc2-c2cccs2)cc1
EC50 [1]: > 100 µM
EC50 [2]: > 100 µM
IC50 [4]: > 100 µM
IC50 [5]: > 100 µM
Activity [6]: inactive

CCCCCn1nc(C(=O)NC(C)(C)CO)cc1-c1ccnn1C
EC50 [1]: > 100 µM
EC50 [2]: > 100 µM
IC50 [4]: > 100 µM
IC50 [5]: > 100 µM
